Among the test systems are A498 renal; ACHN renal; CAKI-1 renal; HCC-2998 colon; LOX IMVI melanoma; MOLT-4 leukemia; SK-MEL-2 melanoma; SNB-19 CNS; SR leukemia.
Holding throughout (assay): growth of human tumour cells (NCI), 48 h

Structures are written as SMILES.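 Interpolation was linear, between the two tested concentrations surrounding the appropriate level; five concentrations were tested over 48 hours in 96-well plates. The concentration for full growth arrest is given as TGI.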

For the compound `Cc1ccccc1-n1c(C)nc(-c2ccccc2)cc1=O`, the TGI in the assay on A498 renal, in the assay with ACHN renal, in the assay with CAKI-1 renal, in the assay on HCC-2998 colon, in the assay on LOX IMVI melanoma and in the assay with MOLT-4 leukemia was over 100 µM throughout. The TGI in the assay on SK-MEL-2 melanoma and with SNB-19 CNS was over 100 µM throughout.
Consider `O=C(O)c1ccccc1NC(=O)C1CCCCC1`, for which the TGI in the assay on A498 renal, with ACHN renal, in the assay on HCC-2998 colon, in the assay on LOX IMVI melanoma, with MOLT-4 leukemia and with SK-MEL-2 melanoma was over 100 µM throughout. In addition, the TGI in the assay with SNB-19 CNS was over 100 µM.
On to `COC(=O)C1=CC2OC1(C)CCC2=O` (stereo not given), for which the TGI in the assay on ACHN renal, in the assay with CAKI-1 renal, in the assay with HCC-2998 colon, in the assay with LOX IMVI melanoma, in the assay with MOLT-4 leukemia and with SK-MEL-2 melanoma was over 100 µM each time. For the same compound, the TGI with SNB-19 CNS and in the assay on SR leukemia was over 100 µM each time.
Regarding `Cc1cccc2nc3cccc(C(=O)NCCN(C)C)c3nc12`, the TGI with A498 renal is 1.35 µM; in the assay on ACHN renal, 5.8 µM; in the assay on CAKI-1 renal, 15.8 µM; in the assay on HCC-2998 colon it was 2.27 µM; in the assay with LOX IMVI melanoma, 11.6 µM; in the assay on MOLT-4 leukemia, over 100 µM. Moreover, the TGI came to 2.96 µM in the assay with SK-MEL-2 melanoma and 5.27 µM in the assay on SNB-19 CNS.
On to `COc1ccc2c(c1OC)C(=O)c1cnccc1C2=O`, for which the TGI in the assay on ACHN renal, in the assay with CAKI-1 renal, in the assay on HCC-2998 colon, in the assay on LOX IMVI melanoma, with MOLT-4 leukemia and with SK-MEL-2 melanoma was over 100 µM throughout. Besides, the TGI in the assay on SNB-19 CNS and with SR leukemia was over 100 µM throughout.
With `Cc1cc(Cl)ccc1C1OC(=O)c2c1ccc1ccccc21` (stereo not given), the TGI with A498 renal, in the assay on ACHN renal, in the assay with CAKI-1 renal, in the assay on HCC-2998 colon, in the assay on LOX IMVI melanoma and with MOLT-4 leukemia was over 100 µM throughout. For the same compound, the TGI with SK-MEL-2 melanoma and in the assay on SNB-19 CNS was over 100 µM each time.
For the compound `Nc1n[nH]c(CCc2nc(N)n[nH]2)n1`, the TGI with A498 renal, in the assay with ACHN renal, in the assay with CAKI-1 renal, with HCC-2998 colon, in the assay with LOX IMVI melanoma and in the assay with MOLT-4 leukemia was over 100 µM in each case. Further, the TGI in the assay on SK-MEL-2 melanoma and in the assay with SNB-19 CNS was over 100 µM in each case.
In the case of `Cc1cc2c(C)n(Cc3ccc(Cl)cc3Cl)nc2c(C(=O)O)c1C`, the TGI in the assay on ACHN renal, with HCC-2998 colon, with LOX IMVI melanoma, with MOLT-4 leukemia, in the assay with SK-MEL-2 melanoma and in the assay with SNB-19 CNS was over 100 µM throughout.
Consider `CC12Oc3ccc4ccccc4c3CC1Cc1c(ccc3ccccc13)O2` (stereo not given), for which the TGI with ACHN renal, with CAKI-1 renal, in the assay on HCC-2998 colon, in the assay with LOX IMVI melanoma, in the assay with SK-MEL-2 melanoma and in the assay on SNB-19 CNS was over 100 µM in each case.
Regarding `CCOC(=O)C1=C(Nc2ccc(Cl)c(Cl)c2)OC/C1=N\NS(=O)(=O)c1ccc(C)cc1`, the TGI in the assay on A498 renal, in the assay with CAKI-1 renal, with HCC-2998 colon, in the assay with LOX IMVI melanoma, in the assay with MOLT-4 leukemia and in the assay with SK-MEL-2 melanoma was over 100 µM in each case. Also, the TGI in the assay on SNB-19 CNS was over 100 µM.
Take `O=C(CC1C(=O)Nc2ccccc2S1=O)Nc1ccc(Cl)cc1` (stereo not given): the TGI in the assay with ACHN renal, in the assay on CAKI-1 renal, with HCC-2998 colon, in the assay on LOX IMVI melanoma, in the assay with MOLT-4 leukemia and with SK-MEL-2 melanoma was over 100 µM throughout. Moreover, the TGI in the assay on SNB-19 CNS and with SR leukemia was over 100 µM in each case.
As for `CC1=CC(=O)N(c2c(C)cccc2Cl)C(C)N1` (stereo not given), the TGI in the assay on A498 renal, in the assay on ACHN renal, in the assay with CAKI-1 renal, in the assay on HCC-2998 colon, with LOX IMVI melanoma and in the assay on MOLT-4 leukemia was over 100 µM in each case. Further, the TGI in the assay with SK-MEL-2 melanoma and in the assay with SNB-19 CNS was over 100 µM throughout.
For the compound `O=S(=O)(C/C(=N\O)c1ccccc1)c1ccccc1`, the TGI in the assay with A498 renal, in the assay with ACHN renal, in the assay on CAKI-1 renal, in the assay with HCC-2998 colon, with LOX IMVI melanoma and with MOLT-4 leukemia was over 100 µM throughout. Moreover, the TGI with SK-MEL-2 melanoma and in the assay on SNB-19 CNS was over 100 µM throughout.
In the case of `COc1ccc2nc(NC(=O)C(=O)C(C#N)c3ccc(Cl)c(Cl)c3)sc2c1` (stereo not given), the TGI with A498 renal, with ACHN renal, in the assay on CAKI-1 renal, in the assay with LOX IMVI melanoma, with SK-MEL-2 melanoma and in the assay with SNB-19 CNS was over 100 µM each time.
With `Cc1cccc(C(C)(C)C)c1NC(=O)CC1Sc2ccccc2NC1=O` (stereo not given), the TGI in the assay with A498 renal, in the assay with ACHN renal, in the assay with CAKI-1 renal, in the assay on HCC-2998 colon, with MOLT-4 leukemia and in the assay with SNB-19 CNS was over 100 µM in each case.

Source of the values: PubChem BioAssay (NCI).
